Literature values as cited in patent US20080095814A1, “Compositions Having a High Antiviral and Antibacterial Efficacy” (THE DIAL CORPORATION, priority 2004, published 2008).

System: rhinoviral infections
Conditions: subjects who used iodine products

**Q.** With II [iodine] as the compound, how does the “colds in users versus placebo users” value read?
**A.** significantly fewer colds than placebo users
